Source: article PMC3475094, “Identification Of Small Molecule TRABID Deubiquitinase Inhibitors By Computation-Based Virtual Screen” (BMC Chemical Biology, 2012)

Biological target: T1, TRABID (Homo sapiens, UniProt Q9UGI0)
T1 construct: gene ZRANB1; full length TRABID
T1 sequence (Q9UGI0 1-708): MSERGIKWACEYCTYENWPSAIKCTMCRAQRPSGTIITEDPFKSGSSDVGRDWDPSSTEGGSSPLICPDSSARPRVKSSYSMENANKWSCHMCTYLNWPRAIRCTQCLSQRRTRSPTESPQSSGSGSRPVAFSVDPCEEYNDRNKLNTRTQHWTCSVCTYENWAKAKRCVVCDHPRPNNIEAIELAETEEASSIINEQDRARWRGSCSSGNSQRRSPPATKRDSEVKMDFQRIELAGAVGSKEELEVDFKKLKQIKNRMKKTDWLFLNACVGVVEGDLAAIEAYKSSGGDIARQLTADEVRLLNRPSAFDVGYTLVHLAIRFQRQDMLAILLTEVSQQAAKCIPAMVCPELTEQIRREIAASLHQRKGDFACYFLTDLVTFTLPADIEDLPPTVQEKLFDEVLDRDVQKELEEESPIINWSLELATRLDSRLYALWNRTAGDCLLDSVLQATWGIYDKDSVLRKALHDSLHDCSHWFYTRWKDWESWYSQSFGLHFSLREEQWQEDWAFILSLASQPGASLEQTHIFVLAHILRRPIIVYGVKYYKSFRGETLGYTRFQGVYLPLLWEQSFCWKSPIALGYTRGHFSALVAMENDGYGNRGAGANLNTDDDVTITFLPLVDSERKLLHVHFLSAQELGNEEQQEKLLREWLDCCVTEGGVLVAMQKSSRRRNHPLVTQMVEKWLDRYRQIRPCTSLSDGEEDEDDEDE
Assay: Hexa-K63 ubiquitin cleavage assay, Western blot quantification
Assay type: biochemical

Row | IC50 [µM] | SMILES
1 | 7.54 | Cc1cc(O)c(Cl)cc1O [compound 29034, NSC29034]
2 | 7.17 | Oc1cc(Br)c(O)cc1Br [compound 133363, NSC133363]
